Data from patent US10736909B2, “Use of trehalose for treatment of neurological diseases” (JUNAXO, INC., priority 2016, dated 2020).
“And” between values parts separate entries of the source, which are not always exact repeats. Identical values can stand only once. Like-named read-outs stand apart in the source and are kept apart here.

Key:
rats receiving A53T αSYN = test: Cylinder test of forelimb asymmetry in AAV1/2 A53T αSYN rat model of PD; type: in vivo, Sprague-Dawley rats; conditions: Day 42, 2.67 g/kg, once per day p.o.
Experimental: Thirty female, Sprague-Dawley rats (280-325 g) split into 5 groups (N=4-8 rats/group) and received a unilateral injection in to the substantia nigra (at co-ordinates AP −5.2 mm; ML −2 mm relative to Bregma, DV −7.5 mm relative to skull over SN) of AAV1/2 delivering A53T alpha-synuclein (AAV1/2 αSYN) or empty vector (control). The A53T αSyn expressed is of the human sequence. Its control is an empty AAV1/2 vector of the same serotype and viral construction. Both AAV1/2 vectors were diluted in sterile phosphate buffered saline and administered at a volume of 2 μl. […]
Animal behavior was assessed pre-surgery and at 3 and 6 weeks post-surgery. Behaviour was assessed by the cylinder test to assess forelimb asymmetry with asymmetry indicating an imbalance in striatal dopaminergic function between the side injected with AAV1/2 αSYN and the contralateral side. […] Striatal tissue from both hemispheres was collected and analysed for dopamine levels. Substantia nigra tissue was collected and analysed for the number of TH^+ve cells and the amount of A53T αSYN measured. Plasma and brain (cerebellum) samples were collected and trehalose levels analysed by LC-MS/MS.

[1] = Plasma and brain trehalose levels 30 min post-dose in rat efficacy study (LC-MS/MS); type: in vivo, Sprague-Dawley rats; conditions: rats; for concentration at 30 min: Sprague-Dawley, rat
Experimental: Animal behavior was assessed pre-surgery and at 3 and 6 weeks post-surgery. Behaviour was assessed by the cylinder test to assess forelimb asymmetry with asymmetry indicating an imbalance in striatal dopaminergic function between the side injected with AAV1/2 αSYN and the contralateral side. Compounds that normalize the forelimb asymmetry are potentially useful for treating PD. After 6 weeks of trehalose treatment, the animals were killed approximately 30 mins after the last administration of trehalose. Striatal tissue from both hemispheres was collected and analysed for dopamine levels. Substantia nigra tissue was collected and analysed for the number of TH^+ve cells and the amount of A53T αSYN measured. Plasma and brain (cerebellum) samples were collected and trehalose levels analysed by LC-MS/MS.
When the animals were killed 30 mins post trehalose administration plasma and brain samples were collected (rats in the 0.89 g/kg/day group only received one dose of trehalose (0.89 g/kg) on this day). This time corresponds to approximately the Tmax of orally administered trehalose. […] Trehalose was measurable in the plasma 30 mins after receiving trehalose (0.89 or 2.67 g/kg) by oral gavage (Table 5). A 3-fold increase in the trehalose dose (0.89 g/kg to 2.67 g/kg) lead to an ˜6-fold increase in the trehalose plasma level, i.e. that increasing the dose produced a greater than dose-proportional increase in trehalose exposure. […] Trehalose was measurable in the brains of rats receiving trehalose (2.67 g/kg) by oral gavage (Table 5).
To better understand why administrating the same amount of trehalose by different routes led to differences in efficacy, studies were conducted to measure blood and brain levels of trehalose following administration of trehalose by 2% in the drinking water, three (3) times daily (0.89 g/kg each dose) and once daily (2.67 g/kg/day).

AAV α-synuclein rat = conditions: 2 and 5% in drinking water; He et al. 2015; cited from earlier work
α-synuclein (αSYN) = conditions: rodent models of PD; Tanji et al., He et al., Wu et al. 2015; cited from earlier work

OC[C@H]1O[C@H](O[C@H]2O[C@H](CO)[C@@H](O)[C@H](O)[C@H]2O)[C@H](O)[C@@H](O)[C@@H]1O [trehalose, (2R,3S,4S,5R,6R)-2-(Hydroxymethyl)-6-[(2R,3R,4S,5S,6R)-3,4,5-trihydroxy-6-(hydroxymethyl)oxan-2-yl]oxyoxane-3,4,5-triol]
% asymmetry (mean ± s.e.mean) (rats receiving A53T αSYN): reduced the asymmetry | concentration at 30 min ([1]; brain (cerebellum), cerebellum, 2.67 g/kg once daily oral gavage, 30 min post-dose, read-out: Brain trehalose level): 52.8 ± 16.9 ng/mL | concentration at 30 min ([1]; plasma, 0.89 g/kg 3 times daily oral gavage, 30 min after one 0.89 g/kg dose, read-out: Plasma trehalose level): 1130 ± 178 ng/mL | concentration at 30 min ([1]; plasma, 2.67 g/kg once daily oral gavage, 30 min post-dose, read-out: Plasma trehalose level): 6380 ± 890 ng/mL | Brain trehalose level ([1]; cerebellum, 0.89 g/kg 3 times daily oral gavage, 30 min after one 0.89 g/kg dose): below the limit of detection and BLQ | Brain trehalose level ([1]; cerebellum, 2% in drinking water): below the limit of detection and BLQ | Brain trehalose level ([1]; cerebellum, 2.67 g/kg once daily oral gavage, 30 min post-dose): measurable | Plasma trehalose level ([1]; 0.89 g/kg 3 times daily oral gavage, 30 min after one 0.89 g/kg dose): measurable | increase in trehalose plasma level on 3-fold increase in dose ([1]; 0.89 g/kg to 2.67 g/kg, 30 min post-dose): 6 fold and 5.6 fold | Plasma trehalose level ([1]; 2% in drinking water, 6 weeks): below the limit of quantification and BLQ | Plasma trehalose level ([1]; 2.67 g/kg once daily oral gavage, 30 min post-dose): measurable | Effect (AAV α-synuclein rat): Neuroprotection | levels of α-synuclein (αSYN) (α-synuclein (αSYN)): reduces
